Source: patent US10561608B2, “Dry powder Vancomycin compositions and associated methods” (SAVARA INC., priority 2011, dated 2020)
Counter-ions that a name gives are not always drawn.

Columns and labels:
[1] = Reconstituted pH of powder; format: physicochemical; conditions: effect of leucine concentration
From the text: In certain embodiments, the dry powder composition may be reconstituted and the resulting reconstituted powder may have a pH greater than 3.0, preferably greater than 3.5 and most preferably greater than 4.0.
In some embodiments, the delivery efficiency of dry powder vancomycin compositions may be improved through the addition of small amounts of leucine (FIG. 2). […] In addition, the addition of leucine results in powders with more physiologically acceptable pH values. See Table 1 below for the effect of leucine concentration on powder water content, particle size and reconstituted pH.

[2] = Single dose plasma pharmacokinetics in healthy volunteers; conditions: human, in vivo, intravenous infusion 250 mg over 60 min, mean
Procedure: FIG. 11 is a graph depicting plasma concentrations as a function of time (semi-log) after a single dose administration of a vancomycin dry powder composition (Lot G-11-026-1) or intravenous administration of vancomycin (inhaled vancomycin dose 16 mg, circle; inhaled vancomycin dose 32 mg, triangle; inhaled vancomycin dose 80 mg, square; Intravenous infusion 250 mg over 60 min, circle with line).
In some embodiments, the dry powder vancomycin compositions of the present disclosure may provide an absolute bioavailability of 40% or more. Absolute bioavailability is calculated as AUC0-inf of vancomycin after the vancomycin composition administration divided by AUC0-inf of vancomycin after intravenous administration and adjusted for dose.
Following a single administration of a dry powder vancomycin composition (Lot […]) in eighteen healthy volunteers, a slow absorption phase followed by an elimination phase were observed. The main pharmacokinetic parameters after single dose administration of the inhaled vancomycin composition and intravenous vancomycin are shown in Table 7. AUC0-t refers to the area under the plasma concentration-time curve to the last measurable time point (24 h) calculated by the linear trapezoidal rule. AUC0-inf refers to the area under the concentration-time curve to infinity. Cmax refers to the maximum blood plasma concentration of vancomycin, and Tmax refers to the amount of time necessary to reach maximum blood plasma levels of vancomycin, and fin, refers to the elimination half-life associated with the terminal slope (Kel) of the semilogarithmic drug concentration-time curve, calculated as 0.693/Kel.

SMILES: CN[C@H](CC(C)C)C(=O)N[C@H]1C(=O)N[C@@H](CC(N)=O)C(=O)N[C@H]2C(=O)N[C@H]3C(=O)N[C@H](C(=O)N[C@H](C(=O)O)c4cc(O)cc(O)c4-c4cc3ccc4O)[C@H](O)c3ccc(c(Cl)c3)Oc3cc2cc(c3OC2O[C@H](CO)[C@@H](O)[C@H](O)[C@H]2O[C@H]2C[C@](C)(N)[C@H](O)[C@H](C)O2)Oc2ccc(cc2Cl)[C@H]1O (stereo partly drawn) [API, Vancomycin hydrochloride]
- Reconstituted pH [1]: 3.0

SMILES: CN[C@H](CC(C)C)C(=O)N[C@H]1C(=O)N[C@@H](CC(N)=O)C(=O)N[C@H]2C(=O)N[C@H]3C(=O)N[C@H](C(=O)N[C@H](C(=O)O)c4cc(O)cc(O)c4-c4cc3ccc4O)[C@H](O)c3ccc(c(Cl)c3)Oc3cc2cc(c3OC2O[C@H](CO)[C@@H](O)[C@H](O)[C@H]2O[C@H]2C[C@](C)(N)[C@H](O)[C@H](C)O2)Oc2ccc(cc2Cl)[C@H]1O (stereo partly drawn) [IV vancomycin, Vancomycin]
- AUC(0-inf) [2]: 44400 ng·h/mL
- Cmax [2]: 10000 ng/mL
- Tmax [2]: 0.92 h
- half-life [2]: 7.23 h
- AUC(0-t) ([2]; t = 24 h): 41000 ng·h/mL
